The record followed here is patent US9670242B2, “Tetracyclic anthraquinone derivatives” (Tianjin Hemay Bio-Tech Co., Ltd, priority 2012, dated 2017).

For assay [1], the system named is NCI-446 cells. In words: NCI-446 cell growth inhibition test (MTT assay). Format: cell-based, human. The conditions noted are these: 72 h. The method, then:
NCI-446 Cell Growth Inhibition Test (MTT Assay)
II. Reagents and Consumable Materials Culture medium: 90% RPMI1640+10% FBS (fetal calf serum); Pancreatin (0.25% (w/v) solution was formulated with PBS, 0.53 mM of EDTA was added in the formulation); PBS; 96-well culture plate.
(§1) 1. A plate (10 cm) of cells in logarithmic growth phase that were normally cultured was collected;
2. The culture solution was sucked out. The plate was washed with 5 ml of PBS once or twice;
3. PBS was sucked out. 1.5 mL of 0.25% pancreatin was added to the plate to infiltrate the cells for 1 min;
4. The culture plate was placed in an incubator. Digestion was carried out for about 3 min at 37° C.;
5. 3 mL of complete culture solution was added to the culture plate to stop the digestion. The cells were carefully scoured with micropipette (1 mL) to give a uniform cell suspension. The suspension was implanted into a 96-well cell culture disc by 4000 cells/100 μL per well. The culture plate was incubated overnight under 5% CO2 at 37° C. In day 2, 100 μL of culture solution comprising a compound was added in each well. The plate was further incubated for 72 h under 5% CO2 at 37° C.;
6. The culture solution was sucked out;
7. 100 μL of serum-free culture solution containing 0.5 mg/mL MTT was added in each well. The plate was incubated for 3 h;
8. The culture solution was carefully sucked out;
9. […]
10. OD values were determined at 490 nM. […]

Assay [2] relates to SK-Br-3 cells. Description: SK-Br-3 cell growth inhibition test (SRB assay). The conditions noted are these: 72 h. Format: cell-based, human. The method, then: SK-Br-3 Cell Growth Inhibition Test (SRB Assay)
(§2) II. Reagents and Consumable Materials
Culture medium: 85% DMEM+15% FBS; pancreatin (0.25% (w/v) solution was formulated with PBS, 0.53 mM of EDTA was added in the formulation); PBS; 96-well culture plate.
as §1
(§3) 2. The culture solution was sucked out. The plate was washed with 5 mL of PBS once or twice;
(§4) 3. 1.5 mL of 0.25% pancreatin was added to the plate to infiltrate the cells;
4. The pancreatin was sucked out. The culture plate was placed in an incubator. Digestion was carried out for about 2 min at 37° C.;
5. 4 mL of complete culture solution was added to the culture plate to stop the digestion. The cells were carefully scoured with micropipette (1 mL) to give a uniform single cell suspension. The suspension was implanted into a 96-well cell culture plate by 10000 cells/100 μL per well. The culture plate was incubated overnight under 5% CO2 at 37° C. In day 2, 100 μL of culture solution comprising a compound was added in each well. The plate was further incubated for 72 h under 5% CO2 at 37° C.;
(§5) 6. The culture solution was sucked out. 100 uL of TCA fixed cells which were diluted to 10% were added to each well. The plate was kept in a refrigerator for 1 h at 4° C.
7. TCA stationary liquid was sucked out. […]
13. OD values were determined at […]. […]

Assay [3] deals with Hep3B cells. Description: Hep3B cell growth inhibition test (SRB assay). Format: cell-based. The conditions noted are these: 72 h. The method, then:
Hep3B Cell Growth Inhibition Test (SRB Assay)
as §2
Culture medium: 90% RPMI-1640+10% FBS; Pancreatin (0.25% (w/v) solution was formulated with PBS, 0.53 mM of EDTA was added in the formulation); PBS; 96-well culture plate.
as §1, §3, §4
4. The pancreatin was sucked out. The culture plate was placed in an incubator. Digestion was carried out for about 3 min at 37° C.;
5. 4 mL of complete culture solution was added to the culture plate to stop the digestion. The cells were carefully scoured with micropipette (1 mL) to give a uniform single cell suspension. The suspension was implanted into a 96-well cell culture plate by 5000 cells/100 μL per well. The culture plate was incubated overnight under 5% CO2 at 37° C. In day 2, 100 μL of culture solution comprising a compound was added in each well. The plate was further incubated for 72 h under 5% CO2 at 37° C.;
as §5
7. TCA stationary liquid was sucked out. Each well was washed with 150 μL of ddH2O five times;
8. After the stationary liquid was cleansed, the plate was dried in the air at the room temperature;
9. 60 μL of SRB staining solution was added in each well. The well was stained for 15 min at the room temperature;
10. The SRB staining solution was sucked out. Each well was washed with 150 μL of 1% glacial acetic acid five times;
11. After the SRB staining solution was cleansed, the plate was dried in the air at the room temperature;
12. 100 μL of 10 mM Tris was added in each well. The plate was vibrated to dissolve out SRB;
13. OD values were determined at 570 nM.
IV. Results and Treatments
1. Calculation of Relative Inhibition Ratio The inhibition ratio of the compound on cell growth=(PC−n)/(PC−NC)×100% […]

The test system of assay [4] is SK-OV-3 cells. Description: SK-OV-3 cell growth inhibition test (MTT assay). Format: cell-based, human. The conditions noted are these: growth inhibition at 667 nM, 69 h. The method, boiled down: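 Human ovarian SK-OV-3 cells, 4000 per well in McCoy's 5A with 10% FBS, rested overnight, then grown 69 h with compound at 37 °C, 5% CO2. MTT (0.5 mg/mL, 3 h), DMSO solubilisation, OD at 490 nm; inhibition ratio computed against untreated and blank wells.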

For the molecule `COc1cccc2c1C(=O)c1c(O)c3c(c(O)c1C2=O)CC(O)(C(=O)COC(=O)CCC(=O)O)CC3OC1CC(n2cccc2)C(O)C(C)O1` (centres unmarked) [Compound A, 3′-pyrrolyldoxorubicin-14-oxo-succinic acid monoester, reference compound], the IC50 in assay [1] was found to be 234 nM; in assay [2], 93 nM; in assay [3] it was 444 nM.

Take `COc1cccc2c1C(=O)c1c(O)c3c(c(O)c1C2=O)CC(O)(C(=O)COC(=O)CCC(=O)NCCOCCO)CC3OC1CC(n2cccc2)C(O)C(C)O1` (centres unmarked) [Example 62]: in assay [4], the “Inhibition Ratio (%)” value was 63.6%.

Take `CC(=O)O.COc1cccc2c1C(=O)c1c(O)c3c(c(O)c1C2=O)CC(O)(C(=O)COC(=O)CCC(=O)NCCCN1CCN(C)CC1)CC3O[C@H]1C[C@H](n2cccc2)[C@H](O)[C@H](C)O1` (stereo partly drawn) [Example 81, 10-((3′-(pyrrol-1-yll)-2′,3′,6′-trideoxy-alphal-l-lyxo-hexylpyranyl)oxy)-7,8,9,10-tetrahydro-6,8,11-trihydroxy-13-oxo-14-(4-((3-(4-methylpiperazin-1-yl)propyl)amino)-4-oxo-butyrato)-1-methoxy-5,12-naphthalenedione acetate]: the “Inhibition Ratio (%)” value in assay [4] is 56.4%.
